{"source": "paper PMC5937946", "about": "(Biochemistry, 2017)", "key": {"[1]": {"test_system": "C. albicans cell-associated Cu", "test": "ICP-MS of cell-associated Cu content", "format": "cell-based, Candida albicans", "settings": "cells grown overnight with BCS"}, "[2]": {"test_system": "C. albicans (ATCC, SC5314)"}, "[3]": {"settings": "pH 7.4; cited from earlier work"}, "[4]": {"settings": "pH 7.4; cited from earlier work", "remark": "listed apart in the source"}, "[5]": {"test_system": "C. albicans (ATCC, SC5314)", "test": "Antifungal susceptibility assay", "settings": "for growth inhibition of C. albicans by metal ion alone: concentration range tested 0–100 µM, no peptide"}}, "note": "Where two headings read alike, the source gives them in different places.", "data": [{"smiles": "Cc1cc(-c2ccc(S(=O)(=O)O)cc2)c2ccc3c(-c4ccc(S(=O)(=O)O)cc4)cc(C)nc3c2n1", "note": "[BCS, bathocuproine disulphonate]", "values": [{"measurement": "decrease in cell-associated Cu compared to basal level", "setting": "[1]", "value": 70, "unit": "%"}, {"measurement": "concentrations well tolerated by C. albicans, ligand alone", "setting": "[2]", "value": "≤ 2000", "unit": "µM"}]}, {"smiles": "O=C(O)CN(CC(=O)O)CC(=O)O", "note": "[NTA, nitrilotriacetic acid]", "values": [{"measurement": "log KNTA(Cu(II))", "setting": "[3]", "value": 10.68}]}, {"smiles": "O=S(=O)([O-])c1ccc(-c2nnc(-c3ccccn3)nc2-c2ccc(S(=O)(=O)[O-])cc2)cc1.[Na+].[Na+]", "note": "[Fz, Ferrozine]", "values": [{"measurement": "log KFz2Cu(I)", "setting": "[4]", "value": 11.56}]}, {"smiles": "O=C(O)CN(CCN(CC(=O)O)CC(=O)O)CC(=O)O", "note": "[EDTA, ethylenediaminetetraacetic acid]", "values": [{"measurement": "concentrations well tolerated by C. albicans, ligand alone", "setting": "[5]; initial susceptibility testing of the ligands alone", "value": "≤ 250", "unit": "µM"}]}, {"smiles": "[Cl][Fe]([Cl])[Cl]", "note": "[Fe(III), FeCl3]", "values": [{"measurement": "growth inhibition of C. albicans by metal ion alone", "setting": "[5]", "value": "Neither Cu(II) nor Fe(III) by themselves inhibited growth"}]}, {"smiles": "O=S(=O)([O-])[O-].[Cu+2]", "note": "[CuSO4, copper sulfate]", "values": [{"measurement": "growth inhibition of C. albicans by metal ion alone", "setting": "[5]", "value": "Neither Cu(II) nor Fe(III) by themselves inhibited growth"}]}]}
